Data published in patent publication US20240091314A1, “USE OF THYMOSIN ALPHA FOR THE TREATMENT OF SEPSIS” (SciClone Pharmaceuticals, Inc., priority 2012, published 2024).

What was measured:
[1] = system: patients with severe sepsis; test: ETASS trial: safety and tolerability assessment; type: in vivo, human; conditions: for drug-related serious/severe adverse events: assessed by the investigator
Method: (§1) In the Tα1 group, patients received subcutaneous injections of 1.6 mg Tα1 (ZADAXIN™, SciClone Pharmaceuticals, Foster City, CA, USA) twice per day for five consecutive days, then once per day for two consecutive days. Prior to administration, the lyophilized powder is to be reconstituted with 1 ml of the provided diluent (sterile water for injection). After reconstitution, the final concentration of Tα1 is 1.6 mg/mL. In the control group, patients received subcutaneous injections of 1 mL normal saline twice per day for five consecutive days, then once per day for two consecutive days. According to trial protocol, therapy had to be started within 4 hrs after enrollment.
Safety and tolerability assessment of Tα1 (see Additional file 3) was based on the comparison of all available information obtained from the two groups with respect to detected outliers in laboratory safety data, drug-related serious adverse events (assessed by the investigator) and deterioration of organ and system function (assessed by the individual SOFA component scoring for respiratory, cardiovascular, hepatic, coagulation, renal and nervous systems that arose during the treatment).

[2] = system: patients with severe sepsis; test: ETASS multicenter randomized controlled trial: mortality, prognosis and SOFA in severe sepsis; type: in vivo, human
Method: We did a prospective, controlled, single-blinded, multi-center randomized clinical trial, which was conducted in the ICUs of six tertiary, teaching hospitals. The ethics committee of the First Affiliated Hospital of Sun Yat-sen University approved the protocol (200815). Written informed consents were obtained from the patients or next of kin for patients unable to consent. The trial was registered with ClinicalTrials.gov, number NCT00711620.
From May 12, 2008 to Dec. 22, 2010 patients diagnosed with severe sepsis admitted to ICUs were enrolled in the trial. The criteria for severe sepsis were a modification of those defined by Bernard et al. (see Additional file 1).
To reduce the impact on the results from heterogeneity of severe sepsis and inter-hospital variation in patient sources as much as possible, stratification by investigative center in combination with computer-generated block randomization (block size=8) according to the sequence of recruitment was employed in the enrollment process. The method of randomization and block size were blinded until the data analysis was finished completely. Clinicians who enrolled the subjects were not involved in data collection. Eligible patients were randomly assigned in a 1:1 ratio in each hospital with four in each block assigned to receive the study drug and the other four to the control group after telephone verification through a randomization center. The allocation sequence was concealed from the researchers. To prevent advance knowledge of treatment assignment and subversion of the allocation sequence, trial entry sheet of the case report form (CRF) was filled out and informed consent was obtained before disclosing the unique participant number and the allocated group; the unique number generated could not be changed and deleted afterward. We used normal saline as placebo. Patients were blinded to the treatment assignments. All statistical analysis was done with masking maintained.
as §1
The treating physicians dictated patient care to current international guidelines, including adequate empiric antibiotic therapy based on current recommendations, ventilation regimen (pressure control mode), blood glucose control, resuscitation and hemodynamic support, organ support, sedation or analgesia as needed and adequate nutrition. Empirical antibiotic therapy was considered adequate when at least one effective drug was included in the empirical antibiotic treatment within the first 24 hrs of the admission to the ICU and the optimal dose and the correct route of administration were in accordance with medical standards and in ICU survivors without microbiologically detected microorganism in bloodstream or focus. When the empirical antibiotic therapy had to be changed after microbiological detection of microorganism, it was considered inadequate, whereas in non-survivors without microbiologically detected microorganism in bloodstream or focus it was considered not evaluable.
The primary efficacy end point was death from any cause and was assessed 28 days after the initiation of treatment assignment. […]

[3] = system: mHLA-DR (monocyte human leukocyte antigen-DR); test: ETASS trial: monocyte HLA-DR expression (% of positive monocytes); type: in vivo
Method: as §1
(§2) The primary efficacy end point was death from any cause and was assessed 28 days after the initiation of treatment assignment. Secondary outcomes included dynamic changes of Sequential Organ Failure Assessment (SOFA), CD 4+/CD8+ and monocyte human leukocyte antigen-DR (mHLA-DR) expression measured on day 0 (the day of enrollment), 3 and 7 in both groups. All mHLA-DR measurements were done in the center laboratory of the First Affiliated Hospital of Sun Yat-sen University. 1 ml unprocessed EDTA whole blood was stored on ice at once after drawing and was transferred to the center laboratory as soon as possible to guarantee measurement within 3 hrs after blood drawing. The method of measuring mHLA-DR was mentioned in our previous paper. Once patients were enrolled, data including demographic characteristics, microbiological findings (primary infection source and the identified microorganisms) and comorbidities were collected when available. The following clinical parameters were recorded on specific days after enrollment: on day 0, the severity as assessed by the Acute Physiology and Chronic Health Evaluation II (APACHE II); on day 0, 3, 7, SOFA, hematologic and biochemical findings, results of mHLA-DR, CD4+/CD8+ tests. The time of the first organ dysfunction was retrospectively estimated according to objective data such as blood gas analysis when the patient was enrolled.
(§3) Based on a previous study, a sample size of 334 patients was required to show a reduction in 28-day mortality rate from 50% to 35% by Tα1 treatment, with a two-sided test (a error=5%; power=80%). Considering a possible drop-out rate of 10%, the trial would need to enroll 368 patients in total. Demographic data, outcome data and other laboratory parameters were summarized by frequency for categorical variables and mean±standard deviation (SD) or median with interquartile range (IQR) for continuous variables. Proportions were compared with chi-square test or Fisher's exact test. Continuous variables were tested by means of t test with normal distribution or Wilcoxon rank-sum test with non-normal distribution. The comparison of primary outcome between two groups was performed by means of Cochran-Mantel-Haenszel test, in which patients were stratified on a number of baseline covariates such as mHLA-DR, scores of APACHE and SOFA, surgical and cancer history, sex and age. The corresponding relative risks (RRs) with 95% confidence intervals (Cis) were computed with logit-adjusted method. Kaplan-Meier estimates without adjustment for baseline covariates were used for survival time analysis, and log-rank tests for comparison. To estimate mean changes from baseline in laboratory parameters, linear mixed models for repeated measures were employed, taking into account the clustering of participating centers and repeated measurements within patients. This model included terms for baseline measurement, treatment group, visit, and treatment×visit interaction. Least-squares means with 95% CIs were reported. We also analyzed the efficacy parameters of the study drug in different prespecified subgroups. The heterogeneity of treatment effects among subgroups was assessed with use of interaction tests. […]

CD4+/CD8+ = test: ETASS trial: CD4+/CD8+ ratio; type: in vivo, human
Method: as §1, §2, §3

[4] = 1.6 mg s.c. twice per day 5 days, then once per day 2 days, n = 181
[5] = during the 28-day study period, n = 181

thymosin alpha 1 [Tα1]
drug-related serious/severe adverse events [1]: no Tα1-related severe adverse event (SAE) was reported | drug-related serious/severe adverse events ([1]; listed as Talpha1): No serious drug-related adverse event | drug-related serious/severe adverse events ([1]; listed as Thymosin alpha 1): not observed | patients with impairment (SOFA component score deterioration): Cardiovascular system, frequency in parentheses ([1]; during the treatment, n = 181): (15.5) | patients with impairment (SOFA component score deterioration): Cardiovascular system, number ([1]; during the treatment, n = 181): 28 | patients with impairment (SOFA component score deterioration): Coagulation system, frequency in parentheses ([1]; during the treatment, n = 181): (26.5) | patients with impairment (SOFA component score deterioration): Coagulation system, number ([1]; during the treatment, n = 181): 48 | patients with impairment (SOFA component score deterioration): Hepatic system, frequency in parentheses ([1]; during the treatment, n = 181): (11.6) | patients with impairment (SOFA component score deterioration): Hepatic system, number ([1]; during the treatment, n = 181): 21 | patients with impairment (SOFA component score deterioration): Nervous system, frequency in parentheses ([1]; during the treatment, n = 181): (7.7) | patients with impairment (SOFA component score deterioration): Nervous system, number ([1]; during the treatment, n = 181): 14 | patients with impairment (SOFA component score deterioration): Renal system, frequency in parentheses ([1]; during the treatment, n = 181): (14.4) | patients with impairment (SOFA component score deterioration): Renal system, number ([1]; during the treatment, n = 181): 26 | patients with impairment (SOFA component score deterioration): Respiratory system, frequency in parentheses ([1]; during the treatment, n = 181): (13.3) | patients with impairment (SOFA component score deterioration): Respiratory system, number ([1]; during the treatment, n = 181): 24 | difference vs control in frequency of outlying laboratory values and all-cause organ or system impairment ([1]; in vivo): no statistically significant differences | treatment discontinuation due to intolerance or adverse events ([1]; in vivo): no treatment was discontinued | patients with Hypoglycemia, frequency in parentheses ([1]; n = 181): (4.4) | patients with Hypoglycemia, number ([1]; n = 181): 8 | patients with outlying values: ALT (U/L), frequency in parentheses ([1]; n = 181): (21.0) | patients with outlying values: ALT (U/L), number ([1]; n = 181): 38 | patients with outlying values: AST (U/L), frequency in parentheses ([1]; n = 181): (23.8) | patients with outlying values: AST (U/L), number ([1]; n = 181): 43 | patients with outlying values: Creatinine (mmol/L), frequency in parentheses ([1]; n = 181): (9.9) | patients with outlying values: Creatinine (mmol/L), number ([1]; n = 181): 18 | patients with outlying values: Hemoglobin (g/L), frequency in parentheses ([1]; n = 181): (14.9) | patients with outlying values: Hemoglobin (g/L), number ([1]; n = 181): 27 | patients with outlying values: Platelets 10^3/mm^3), frequency in parentheses ([1]; n = 181): (37.0) | patients with outlying values: Platelets 10^3/mm^3), number ([1]; n = 181): 67 | 28-day mortality (death from any cause), number of patients [2, 4]: 47 | 28-day mortality (death from any cause), rate [2, 4]: 26.0% | 28-day mortality (death from any cause), rate ([2]; 1.6 mg s.c. twice per day 5 days, then once per day 2 days, n = 181, listed as Talpha1): 26.0% | 28-day mortality (death from any cause), rate ([2]; 1.6 mg s.c. twice per day 5 days, then once per day 2 days, n = 181, listed as TαI): (26.0%) | survival after enrollment vs control group (Kaplan-Meier, log rank) ([2]; 28 days, log rank P=0.049): survived longer | SOFA score, Mean (95% CI) ([2]; Day 0 (day of enrollment)): 7.9 | SOFA score, Mean (95% CI) ([2]; Day 3): 6.1 | SOFA score, Mean (95% CI) ([2]; Day 7): 5.3 | SOFA score ΔDay 3, between groups difference ([2]; Tα1 group vs control group): −0.5 | SOFA score ΔDay 7, between groups difference ([2]; Tα1 group vs control group): −0.7 | SOFA score change ΔDay 3 ([2]; day 3 compared with day 0): −1.8 | SOFA score change ΔDay 7 ([2]; day 7 compared with day 0): −2.5 | ICU-free days, Median (95% CI) [2, 5]: 10.0 days | Ventilation-free days, Median (95% CI) [2, 5]: 18.0 days | relative risk of death in hospital compared to the control group ([2]; in vivo): 0.73 | Duration of ventilation, Median (IQR) ([2]; n = 181): 7.0 | ICU stay, Median (IQR) ([2]; n = 181): 11.0 | In-ICU mortality, number of patients ([2]; n = 181): 35 | In-ICU mortality, rate ([2]; n = 181): (19.3%) | In-hospital mortality, number of patients ([2]; n = 181): 52 | In-hospital mortality, rate ([2]; n = 181): 28.7% | In-hospital mortality, rate ([2]; n = 181, listed as TαI): (28.7%) | relative risk of death, non-cancerous patients ([2]; non-cancerous patients): 0.91 | relative risk of death within 28 days as compared to the control group ([2]; non-stratified analysis): 0.74 | relative risk of death compared to the control group, subgroup of patients with cancer ([2]; patients with cancer): 0.46 | primary end point in prespecified subgroups (APACHE II, SOFA, mHLA-DR, surgery or cancer history, sex, age) ([2]; stratified analyses): tended to improve outcome but without statistical significance | absolute reduction in 28-day mortality ([2]; vs control group): 9.0% | decreasing tendency within 7 days in SOFA score ([2]; vs control group): seemed to favor the Tα1 group | difference between the two groups in ICU mortality, ventilation-free days, ICU-free days, length of ICU stay and duration of mechanical ventilation ([2]; vs control group): no significant difference | mHLA-DR, Mean (95% CI) ([3]; Day 0 (day of enrollment)): 51.8% | mHLA-DR, Mean (95% CI) ([3]; Day 3): 59.8% | mHLA-DR, Mean (95% CI) ([3]; Day 7): 68.9% | mean difference in mHLA-DR changes between the two groups, day 3 ([3]; Tα1 group vs control group): 3.9% | mean difference in mHLA-DR changes between the two groups, day 7 ([3]; Tα1 group vs control group): 5.8% | mHLA-DR mean change from baseline ΔDay 3 ([3]; day 3 compared with day 0): 8.0% | mHLA-DR mean change from baseline ΔDay 7 ([3]; day 7 compared with day 0): 17.0% | ratio of CD4+/CD8+ during the 7 days (CD4+/CD8+; 7 days): remained unchanged | CD4+/CD8+, Mean (95% CI) (CD4+/CD8+; Day 0 (day of enrollment)): 2.5 | CD4+/CD8+, Mean (95% CI) (CD4+/CD8+; Day 3): 2.7 | CD4+/CD8+, Mean (95% CI) (CD4+/CD8+; Day 7): 2.5 | CD4+/CD8+ ΔDay 3, between groups difference (CD4+/CD8+; Tα1 group vs control group): 0 | CD4+/CD8+ ΔDay 7, between groups difference (CD4+/CD8+; Tα1 group vs control group): 0.1 | CD4+/CD8+ change ΔDay 3 (CD4+/CD8+; day 3 compared with day 0): 0.3 | CD4+/CD8+ change ΔDay 7 (CD4+/CD8+; day 7 compared with day 0): 0.1
